From patent US10928381B2, “In vitro methods of monitoring autophagy in a human cell using a photoconvertable fluorescent protein linked biomarker” (The Regents of the University of Michigan, priority 2018, dated 2021)

Tests used:
Dendra2-LC3 HEK cells [1] = assay: Optical pulse labeling: time-dependent decay of photoconverted (red, RFP/TRITC) Dendra2-LC3 as measure of autophagic flux; type: cell-based, human; set-up: key to Hit class in screen of Enzo Autophagy compound library (9H RFP/0H RFP): enhancer: [Sample9H RFP/OH RFP]<[DMSO9H RFP/OH RFP−3SDDMSO]; inhibitor: [Sample9H RFP/OH RFP]>[DMSO9H RFP/OH RFP 3SDDMSO]; conditions: for Hit class in screen of Enzo Autophagy compound library (9H RFP/0H RFP): 10 uM, 9 hours after drug addition; for Phase II result, Dendra2-LC3 degradation kinetics: in comparison to DMSO
Experimental: FIGS. 8A-E. Time dependent decay of Dendra2-LC3 as an assay of autophagic flux. (FIG. 8A) Dendra2-LC3 reporter cells were imaged prior to photoconversion to measure background TRITC intensity. Immediately following photoconversion with a 5 second pulse of […] light, cells were treated with DMSO, 1 uM Torin1, or 10 nM Bafilomycin-A1 and then were subsequently imaged at the indicated time points. Images are psuedocolored to better highlight intensity differences. (FIGS. 8B-E) Time dependent changes in photoconverted Dendra2-LC3 fluorescence in the TRITC (FIGS. 8B, D) and GFP (FIGS. 8C, E) channels. Gray boxes represent the pre and post-photoconversion time points. TRITC intensity values are normalized, setting the background intensity prior to conversion to 0 and the post-conversion value to 1. GFP values are normalized to the pre-conversion intensity. Error bars represent the SEM from three replicate experiments. […] (FIG. 8C) Following photoconversion there is a 40% drop in GFP intensity. As new Dendra2-LC3 is synthesized, GFP levels return to pre-photoconversion levels over the span of 13.5 hours. […] Cells were transfected with 20 nM ATG5 siRNA two days prior to imaging.
FIG. 9A-C. Evaluating the efficacy of known autophagy modulators. (FIG. 9A) An unbiased screen of the Enzo Autophagy compound library identified several known autophagy compounds as hits providing construct validity to the assay. Rapamycin, NVP-BEZ235 and AKT inhibitor X, were among the compounds appropriately identified as enhancers while Bafilomycin registered as an inhibitor. […] Cells were imaged in RFP to measure background fluorescence, then photoconverted with a 4 second DAPI exposure and immediately imaged again to establish the postconversion intensity. Drugs from the Enzo Autophagy library were added at a concentration of 10 uM via a robotic liquid handler. 9 hours later the cells were imaged again in order to assess the efficacy of the drugs. Hits were defined as follows: enhancer: [Sample9H RFP/OH RFP]<[DMSO9H RFP/OH RFP−3SDDMSO], inhibitor: [Sample9H RFP/OH RFP]>[DMSO9H RFP/OH RFP 3SDDMSO]. […] Imaging of the compound library was repeated in GFP. Intensity values are reported 15 hours after drug treatment. (FIG. 9C) The reduction in Dendra2-LC3 half-life observed upon treatment of autophagic flux enhancers is attenuated with partial knockdown of ATG5. Cells were transfected with 20 nM ATG5 siRNA 2 days prior to imaging. Error bars represent SEM from three replicate experiments.
Experiments were conducted during development of embodiments herein to develop a sensitive method—optical pulse labeling (OPL)—that takes advantage of the photoconvertible fluorescent protein Dendra2 for estimations of autophagic flux in cellulo (Refs 14, 34; herein incorporated by reference in their entireties) (FIG. 1b). […] Dendra2 was fused to LC3, a specific marker of autophagosomes and itself an autophagy substrate (Refs. 27, 31; herein incorporated by reference in their entireties). Following photoconversion, the time-dependent reduction in red LC3-Dendra2 (FIG. 1c) is used to calculate protein half-life, representing an estimate of autophagy flux for individual cells (Refs. 14, 34; herein incorporated by reference in their entireties) Furthermore, because LC3 is degraded as autophagosomes mature, the return to steady-state levels of green Dendra2-LC3 after photoconversion (FIG. 1d) reflects activity within the pathway as a whole. The assay is noninvasive, permitting longitudinal analyses of autophagy kinetics in living cells, and amenable to HTS.
For these studies the potent mTOR inhibitor torin1 (Ref. 36; herein incorporated by reference in its entirety) was selected as a positive control for autophagy induction, and the vacuolar ATPase inhibitor bafilomycin-A1 (Ref. 37; herein incorporated by reference in its entirety) as a positive control for autophagy inhibition. In each case, DMSO served as a vehicle (negative) control. […]

Dendra2-LC3 HEK cells [2] = assay: Native (green, GFP) Dendra2-LC3 intensity and puncta, phase I primary screen readout (T15/T0); type: cell-based, human; conditions: for Phase I result, normalized GFP intensity (T15/T0): 15 h
Text: Conventional methods for estimating autophagy flux rely upon the assessment of LC3 or other autophagy substrates by Western blotting or immunocytochemistry (Ref. 27; herein incorporated by reference in its entirety); by their very nature, these techniques are static and limited to dead cells. Fluorescence-based methods that use tagged substrates allow visualization of autophagy within living cells, but typically require the overexpression of autophagy target proteins that may disrupt the very process they are intended to measure. To assess autophagy in human cells without compromising or interfering with the pathway, experiments were conducted during development of embodiments herein utilizing CRISPR/Cas9 genome editing (Refs. 29-30; herein incorporated by reference in their entireties) to insert the Dendra2 open reading frame into the MAP1LC3B locus (encoding LC3) of HEK cells (FIG. 2a). A mutated, nickase version of Cas9 (Cas9n) was used that is incapable of making double-stranded DNA breaks, thereby minimizing the risk of non-homologous end joining and unwanted insertions or deletions (Refs. 29, 35; herein incorporated by reference in their entireties). Two separate single guide RNAs (sgRNAs) were designed that recognize sequences just upstream and downstream of the MAP1LC3B start codon, and a homology directed repair (HDR) vector encoding the Dendra2 open reading frame flanked by 400 bp of homologous sequence surrounding the MAP1LC3B start codon (FIG. 2a). Following expression of the sgRNAs, Cas9n and the HDR in HEK cells, colonies were selected based upon green fluorescence and passaged to homogeneity (FIG. 2b). The insertion site was confirmed by DNA sequencing, PCR, and immunocytochemistry using antibodies that recognize LC3. Providing further validation of the insertion, transfection with siRNA directed against the MAP1LC3B locus elicited a significant reduction in Dendra2-LC3 protein levels as measured by western blotting and native GFP fluorescence (FIG. 2c, d). In untreated cells, Dendra2-LC3 fluorescence appears diffuse, as expected (FIG. 3a). […] Second, autophagy induction in these cells is accompanied not only by the formation of puncta, but also by relative decreases in diffuse Dendra2-LC3 fluorescence, as indicated by the model in FIG. 1.
For these studies the potent mTOR inhibitor torin1 (Ref. 36; herein incorporated by reference in its entirety) was selected as a positive control for autophagy induction, and the vacuolar ATPase inhibitor bafilomycin-A1 (Ref. 37; herein incorporated by reference in its entirety) as a positive control for autophagy inhibition. In each case, DMSO served as a vehicle (negative) control. Dendra2-LC3 was photoconverted immediately prior to drug application, and the fluorescence intensity in the green (GFP) and red (RFP) channels was measured at regular intervals for 15 h.
The Z′ value for the effect of torin1 on the normalized GFP intensity, calculated as a ratio of GFP intensity at 15 h to that at 0 h (T15/T0), was 0.63 when the assay was conducted in a 96-well format in our laboratory, and 0.56 when conducted in a 384-well format at the Center for Chemical Genomics (CCG, FIG. 3e), indicative of a robust screening platform (Ref. 38; herein incorporated by reference in its entirety). […] The false negative rate was near zero, ensuring a highly sensitive assay.
The possibility that cell death and toxicity mimics the reduction in GFP intensity that would otherwise denote autophagy induction was also addressed. To avoid confounding from toxicity, the area occupied by cells in each image is calculated using ImageJ software and used as a proxy for cell number; since all wells received the same number of cells, >25% reductions in the area occupied by cells at the end of the experiment indicates toxicity. The formation of Dendra2-LC3 puncta in each condition is scored simultaneously using the ‘analyze particles’ function in ImageJ. […]

[3] = tested on: primary rat cortical neurons overexpressing WT-TDP43-GFP; assay: Survival of primary neurons overexpressing TDP43, automated fluorescence microscopy; type: cell-based; conditions: 25 nM
[4] = tested on: Tandem reporter (RFP-GFP-LC3) HeLa cells; assay: Tandem reporter (RFP-GFP-LC3) assay, % of RFP puncta that are GFP positive; type: cell-based; conditions: imaged after 12 hours
Experimental: FIG. 13A-E. Validation of novel autophagy inhibitors with an independent measure of autophagic flux. (FIG. 13A) Tandem reporter (RFP-GFP-LC3) HeLa cells treated with the indicated compounds and imaged after 12 hours in RFP (middle panels) GFP (bottom panels). […] Concentrations used correspond to the lowest dose resulting in the maximum degree of colocalization between GFP and RFP puncta as calculated in (B). These are: 3 nM Bafilomycin, 1 uM Quinacrine, 50 uM 245536, and 100 uM of 254522, 45808, 234794, and 237373. (Scale bar: 50 μm) (FIG. 13B) The percentage of RFP positive puncta that are also GFP positive in tandem reporter HeLa cells was analyzed using Cell Profiler. First GFP (1a) and RFP (1b) images of the same field of cells are uploaded into Cell Profiler. Using the GFP images, nuclei are identified (2a-green outlines) and a nuclear mask (2b) is generated. […] Cellular boundries are identified (3a-purple outlines) and a cellular mask is created. […] Only puncta within this mask will be evaluated in subsequent steps. […] (FIG. 13D) Tandem reporter HeLa cells were imaged once prior to drug treatment and then treated with the lowest dose that produced the maximum response as calculated in (FIG. 13C) and imaged immediately after. […] Each point is calculated by taking the mean % of (GFP+/RFP+ puncta)/(RFP+) from 8 technical replicates. […]

Structure (SMILES): CCN(CC)CCCCN1c2ccccc2Oc2ccc(Cl)cc21 [AKT inhibitor X]
- Hit class in screen of Enzo Autophagy compound library (9H RFP/0H RFP) (Dendra2-LC3 HEK cells [1]): enhancer
- Phase I result, normalized GFP intensity (T15/T0) (Dendra2-LC3 HEK cells [2]; Prestwick and Enzo collections): autophagy inducers

Structure (SMILES): OCCN1CCN(CCCN2c3ccccc3Sc3ccc(C(F)(F)F)cc32)CC1 [Fluphenazine]
- Formation of Dendra2-LC3 (LC3-positive) puncta (Dendra2-LC3 HEK cells [2]; FPZ 0.5 μM, torin1 1 μM): elicits the formation of LC3-positive puncta
- GFP intensity of native Dendra2-LC3 (Dendra2-LC3 HEK cells [2]; FPZ 0.5 μM, torin1 1 μM, vs DMSO): reduces the steady-state GFP intensity

Structure (SMILES): Cn1c(=O)n(-c2ccc(C(C)(C)C#N)cc2)c2c3cc(-c4cnc5ccccc5c4)ccc3ncc21 [NVP-BEZ235]
- Hit class in screen of Enzo Autophagy compound library (9H RFP/0H RFP) (Dendra2-LC3 HEK cells [1]): enhancer
- Rank among autophagy inducers in phase I (Dendra2-LC3 HEK cells [2]; Prestwick and Enzo collections): rank among the most potent inducers
- Effect on TDP43 toxicity [3]: suppresses toxicity
- Hazard ratio, Cox proportional hazards analysis ([3]; p<0.05): 0.89

Structure (SMILES): CCN(CC)CCCC(C)Nc1c2ccc(Cl)cc2nc2ccc(OC)cc12 (stereo not drawn) [Quinacrine]
- Lowest dose resulting in the maximum degree of colocalization between GFP and RFP puncta [4]: 1 µM

Structure (SMILES): CO[C@H]1C[C@@H]2CC[C@@H](C)[C@@](O)(O2)C(=O)C(=O)N2CCCC[C@H]2C(=O)O[C@H]([C@H](C)C[C@@H]2CC[C@@H](O)[C@H](OC)C2)CC(=O)[C@H](C)/C=C(\C)[C@@H](O)[C@@H](OC)C(=O)[C@H](C)C[C@H](C)/C=C/C=C/C=C/1C [Rapamycin]
- Hit class in screen of Enzo Autophagy compound library (9H RFP/0H RFP) (Dendra2-LC3 HEK cells [1]): enhancer

Structure (SMILES): O=C(CCCCCN1C(=O)c2cccc3cccc(c23)C1=O)NO [Scriptaid]
- Phase II result, Dendra2-LC3 degradation kinetics (Dendra2-LC3 HEK cells [1]): significantly slowed Dendra2-LC3 degradation
- Phase I result, normalized GFP intensity (T15/T0) (Dendra2-LC3 HEK cells [2]; Prestwick and Enzo collections): significant increases in Dendra2-LC3 GFP fluorescence

Structure (SMILES): NC(=O)N1c2ccccc2C=Cc2ccccc21 [carbamazepine]
- Hit class in screen of Enzo Autophagy compound library (9H RFP/0H RFP) (Dendra2-LC3 HEK cells [1]): failure to markedly affect flux
- Phase II result, Dendra2-LC3 degradation kinetics (Dendra2-LC3 HEK cells [1]): significantly slowed Dendra2-LC3 degradation
- Phase I result, normalized GFP intensity (T15/T0) (Dendra2-LC3 HEK cells [2]; Prestwick and Enzo collections): significant increases in Dendra2-LC3 GFP fluorescence

Structure (SMILES): C[C@@H]1C[C@@H]([C@H](O)CC2CC(=O)NC(=O)C2)C(=O)[C@@H](C)C1 [cycloheximide]
- Phase II result, Dendra2-LC3 degradation kinetics (Dendra2-LC3 HEK cells [1]): failed to affect Dendra2-LC3 degradation kinetics
- Phase I result, normalized GFP intensity (T15/T0) (Dendra2-LC3 HEK cells [2]; Prestwick and Enzo collections): potential autophagy inducers

Structure (SMILES): OC[C@H]1O[C@H](O[C@H]2O[C@H](CO)[C@@H](O)[C@H](O)[C@H]2O)[C@H](O)[C@@H](O)[C@@H]1O [trehalose]
- Hit class in screen of Enzo Autophagy compound library (9H RFP/0H RFP) (Dendra2-LC3 HEK cells [1]): failure to markedly affect flux
